From US9321772B2, “Substituted pyrazolo[3,4-D]pyrimidines and uses thereof” (The Regents of the University of California, priority 2011, dated 2016)
Entries after “also recorded” stand apart in the source; their conditions may differ.

Experiments:
mTor = mTor (Homo sapiens, UniProt P42345); test: In vitro kinase assay, mTor; type: biochemical; conditions: in vitro kinase profile, 1 μM
Procedure: (§1) Using in vitro kinase assays we tested AD57, AD36, and AD58 at 1 μM for activity against approximately one-half of the human kinome (FIG. 1E): 165 Ser/Thr kinases, 91 Tyr kinases, and 10 PI kinases were assayed, totaling 266 kinases (244 distinct kinases plus 22 mutant isoforms; see FIG. 6A-6C, FIG. 7A-7F, and FIG. 8 for measured inhibition values).
(§2) At least three major pathways are required for dRet^MEN2B-mediated transformation: Ras, Src, and glucose metabolism/PI3K (FIG. 3A; Ref (Read, R. D. et al., Genetics, 2005. 171(3): p. 1057-81)). We utilized in vitro kinase assays to assess compound activity against relevant kinases from each of these pathways, specifically Ret, B-Raf, Src, Tor, and S6K (FIG. 3B).

[1] = system: MEN2A (TT) thyroid cancer cells; test: Immunoblot analysis of drug-treated TT cells; type: cell-based, human; conditions: 1 hour of treatment
Procedure: (§3) FIG. 19. […] MEN2A (TT) and MEN2B (MZ) thyroid cancer cells were treated with the indicated drugs for 3 days at a final concentration of 2 μM. Cell lystates were immunoblotted for protein markers of apoptosis. Vandetanib (vand.) was included for comparison.
(§4) FIG. 20A-20B. […] FIG. 20A. MEN2B (MZ) and FIG. 20B. MEN2A (TT) thyroid cancer cells were treated with the indicated concentrations of drug. Following 1 hour of treatment, cells were harvested and lysates prepared for immunoblotting to detect the indicated proteins. VD=vandetanib; SF=sorafenib.

[2] = system: ptc>dRet^MEN2B wing cells; test: Wing-based assay for transformation and cell migration (ptc>dRetMEN2B); type: in vivo, Drosophila
From the text: FIG. 4E. Quantification of ptc>dRet^MEN2B phenotypes. Invasion was established by scoring for single/groups of GFP-labeled cells that relocated away from the ptc boundary (FIG. 4C, asterisks). Basal migration was scored as indentation of the apical surface (see FIG. 2B, arrows). Proliferation was scored as significant widening of the ptc boundary. The number of wings analyzed under each condition is indicated in brackets.
We previously developed a wing-based assay for transformation and cell migration that we utilized to explore Ras- and Src-based tumorigenesis (Vidal, M., D. E. Larson, and R. L. Cagan, Dev Cell, 2006. 10(1): p. 33-44). In this assay, the ptc-GAL4 driver directed oncogene expression in a stripe along the anterior-posterior axis; oncogene-based transformation led to over-proliferation, epithelial-to-mesenchymal transition (EMT), and cell migration away from the ptc domain.

ptc>dRet^MEN2B flies = test: Drosophila ptc>dRetMEN2B viability assay; type: in vivo; conditions: for rescue of ptc>dRetMEN2B viability (pupae, adults), in words: oral administration, drug mixed into food
From the text: FIG. 1A. Suppression of Ret^MEN2B-induced developmental block and whole animal toxicity were scored based on number of embryos (n) that survived as pupae (x) and adults (y). Drugs were mixed into food and fed to flies starting at larval stages.
FIG. 1B. Percent viability of control or drug treated flies determined for pupae (x/n) and adults (y/n).
Described herein is a Drosophila MEN2B model in which an intracellular mutation in the Drosophila Ret ortholog (dRet) was targeted to the eye (Read, R. D. et al., Genetics, 2005. 171(3): p. 1057-81). […] The screen is conducted in developing drosophila embryos. Under normal circumstances, drosophila embryos pass through four developmental steps: embryo→larvae→pupae→adult. […] We calibrated the ptc>dRetMEN2B assay to permit 50% survival to pupariation and 0% survival to adulthood. Mutated forms of RET are believed to be causative in human thyroid cancers including multiple endocrine neoplasia types 2A and 2B (MEN2A and MEN2B). The screen identifies small molecules that (a) suppress the toxicity induced by oncogenic RET and (b) allow flies to develop to functional adults. […] 64(19): p. 7099-109; Sun, L. et al., J Med Chem, 2003. 46(7): p.

[3] = system: 765>dRet^MEN2B wings (Ras/Erk pathway activity); test: Adult wing vein pattern assay (765>dRetMEN2B); type: in vivo, Drosophila; conditions: drug fed flies
From the text: The adult Drosophila wing consists of a stereotypical pattern of […] and two cross-veins; increased Ras/Erk pathway activity leads to ectopic veins (e.g., Refs. (Sawamoto, K. et al., Dev Biol, 1996. 178(1): p. 13-22; Guichard, A. et al., Development, 1999. 126(12): p. 2663-76)). Expression of oncogenic dRet throughout the developing wing (765>dRet^MEN2B) led to disruption of the overall adult wing pattern including ectopic wing veins (FIG. 3D). Reducing gene dosage of the erk ortholog rolled (765>dRet^MEN2B erk−/+) suppressed these phenotypes (FIG. 3D), confirming that wing vein formation is dependent on Ras/Erk activity.

[4] = system: MEN2B (MZ) thyroid cancer cells; test: Immunoblot analysis of drug-treated MZ cells; type: cell-based, human; conditions: 1 hour of treatment
Procedure: as §3, §4

S6K = S6K (Homo sapiens, UniProt P23443); test: In vitro kinase assay, S6K; type: biochemical; conditions: in vitro kinase profile, 1 μM
Sequence of S6K (P23443 whole entry): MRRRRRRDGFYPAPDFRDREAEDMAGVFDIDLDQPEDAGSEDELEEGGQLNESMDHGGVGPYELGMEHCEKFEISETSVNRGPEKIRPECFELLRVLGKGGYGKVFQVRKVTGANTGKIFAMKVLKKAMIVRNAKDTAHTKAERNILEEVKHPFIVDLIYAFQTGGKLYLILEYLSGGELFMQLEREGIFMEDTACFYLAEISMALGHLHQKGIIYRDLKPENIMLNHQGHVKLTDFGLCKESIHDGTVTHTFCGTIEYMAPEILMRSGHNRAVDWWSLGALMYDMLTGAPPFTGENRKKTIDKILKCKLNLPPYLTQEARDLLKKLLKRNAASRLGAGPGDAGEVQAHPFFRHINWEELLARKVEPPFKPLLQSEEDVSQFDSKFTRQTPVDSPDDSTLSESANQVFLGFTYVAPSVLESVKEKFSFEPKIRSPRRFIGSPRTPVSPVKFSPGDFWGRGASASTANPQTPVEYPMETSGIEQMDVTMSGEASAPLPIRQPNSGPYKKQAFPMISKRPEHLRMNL
Procedure: as §1, §2

B-Raf = B-Raf (Homo sapiens, UniProt P15056); test: In vitro kinase assay, B-Raf; type: biochemical; conditions: in vitro kinase profile, 1 μM
Sequence of B-Raf (P15056 whole entry): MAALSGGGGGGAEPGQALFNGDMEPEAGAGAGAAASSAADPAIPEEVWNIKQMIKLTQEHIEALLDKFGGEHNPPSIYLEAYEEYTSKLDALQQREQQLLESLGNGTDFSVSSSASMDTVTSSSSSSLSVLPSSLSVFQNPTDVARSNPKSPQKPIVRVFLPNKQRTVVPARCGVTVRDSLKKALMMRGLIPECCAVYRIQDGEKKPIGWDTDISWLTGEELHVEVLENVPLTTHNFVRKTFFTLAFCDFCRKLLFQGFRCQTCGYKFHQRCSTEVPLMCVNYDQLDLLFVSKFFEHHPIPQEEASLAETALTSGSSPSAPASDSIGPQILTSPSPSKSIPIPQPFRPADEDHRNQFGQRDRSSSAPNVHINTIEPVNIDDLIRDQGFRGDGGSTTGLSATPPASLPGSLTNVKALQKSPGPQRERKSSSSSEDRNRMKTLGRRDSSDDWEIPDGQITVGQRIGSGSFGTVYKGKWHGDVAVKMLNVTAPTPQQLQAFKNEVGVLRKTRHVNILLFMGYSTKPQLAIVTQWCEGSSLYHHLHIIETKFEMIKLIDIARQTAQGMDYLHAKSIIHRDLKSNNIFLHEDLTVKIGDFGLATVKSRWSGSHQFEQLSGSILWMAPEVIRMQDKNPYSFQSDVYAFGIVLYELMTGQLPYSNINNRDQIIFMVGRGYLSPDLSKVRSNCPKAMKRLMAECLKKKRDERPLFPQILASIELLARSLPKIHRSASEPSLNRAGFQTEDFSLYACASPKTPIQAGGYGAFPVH
Procedure: as §1, §2

Src = Src (Homo sapiens, UniProt P12931); test: In vitro kinase assay, Src; type: biochemical; conditions: in vitro kinase profile, 1 μM
Sequence of Src (P12931 whole entry): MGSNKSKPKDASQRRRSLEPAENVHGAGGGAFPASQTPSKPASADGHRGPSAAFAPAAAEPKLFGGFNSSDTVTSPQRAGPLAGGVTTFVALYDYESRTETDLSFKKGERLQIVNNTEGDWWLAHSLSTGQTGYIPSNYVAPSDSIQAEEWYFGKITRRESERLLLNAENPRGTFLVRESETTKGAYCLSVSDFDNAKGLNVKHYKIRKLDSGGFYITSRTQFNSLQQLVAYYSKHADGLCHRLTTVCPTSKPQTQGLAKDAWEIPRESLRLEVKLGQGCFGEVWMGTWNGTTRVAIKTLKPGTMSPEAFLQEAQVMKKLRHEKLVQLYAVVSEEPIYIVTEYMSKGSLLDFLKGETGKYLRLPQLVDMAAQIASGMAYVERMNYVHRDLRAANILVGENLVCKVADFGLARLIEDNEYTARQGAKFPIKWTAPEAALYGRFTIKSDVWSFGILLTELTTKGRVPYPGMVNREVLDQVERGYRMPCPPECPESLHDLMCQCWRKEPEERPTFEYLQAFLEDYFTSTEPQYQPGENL
Procedure: as §1, §2

wild type flies = test: Viability of drug treated wild-type flies; type: in vivo, Drosophila
From the text: FIG. 4B. Decreased viability of wild type flies by AD58 was mitigated by co-administration of Sorafenib or AZD6244.
FIG. 15. Percent viability of control and drug treated wild-type flies (WT). The proportion of WT pupae and adults that survived from the total number of embryos (indicated in brackets below) are represented as column graphs. (Pupae left, Adults right)

[5] = system: TT cell tumors in athymic nu/nu mice; test: MEN2 (TT) mouse xenograft model; type: in vivo; conditions: nude mice transplanted with TT cells; oral gavage; median per group
Procedure: FIG. 11. […] TT thyroid cancer cells were implanted into athymic nu/nu mice subcutaneously into the right flank under the conditions listed. Upon establishment of tumors, drugs were administered by oral gavage (5 days ON/2 days OFF schedule). Tumors were measured using digital calipers. […] VD=vandetanib.
FIG. 18A-18D. […] FIG. 18A. MEN2B (MZ) thyroid cancer cells were treated with the indicated concentrations of each inhibitor (7 days) and cell viability was quantitated by MTT assay. FIG. 18B. MEN2A (TT) thyroid cancer cells were treated with the indicated concentrations of each inhibitor (7 days) and cell viability was quantitated by MTT assay. FIG. 18C. […] Change in tumor volume was calculated per mouse. Values shown are the median percent change per group. 20 and 10 animals for vehicle and drug treated mice, respectively, were analyzed. FIG. 18D. Body weight measurements of AD80, Vandetanib (VD) and vehicle treated nude mice transplanted with TT cells. Values shown are the median of 20 and 10 animals for vehicle and drug treated mice, respectively.
TT-based tumors were grown for 46 days in athymic nu/nu male mice prior to drug administration.

[6] = system: MZ-CRC-1 (MEN2B) cancer cell line; test: MZ-CRC-1 cell viability (MTT assay); type: cell-based, human
Ret kinase domain = target: T1, Ret kinase domain (Homo sapiens, UniProt P07949); test: In vitro kinase assay, Ret; type: biochemical; conditions: in vitro kinase profile, 1 μM
T1 construct: determined against a purified form of the Ret kinase domain
T1 sequence (P07949 724-1016 limits assumed): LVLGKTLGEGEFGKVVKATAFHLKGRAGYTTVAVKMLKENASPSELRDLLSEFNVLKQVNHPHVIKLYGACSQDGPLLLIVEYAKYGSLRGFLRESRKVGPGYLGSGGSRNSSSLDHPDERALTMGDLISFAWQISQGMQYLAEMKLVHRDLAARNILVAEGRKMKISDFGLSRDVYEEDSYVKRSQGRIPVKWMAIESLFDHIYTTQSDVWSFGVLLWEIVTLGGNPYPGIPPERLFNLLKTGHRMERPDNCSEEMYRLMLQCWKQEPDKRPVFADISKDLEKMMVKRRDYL
Procedure: FIG. 1D. […] Half maximal inhibitory concentrations (IC50) were determined against a purified form of the Ret kinase domain.
as §1, §2

SMILES | mTor inhibition, in words (mTor) | suppression of dRetMEN2B-induced proliferation, EMT, invasion/basal migration ([2]; oral administration) | rescue of ptc>dRetMEN2B viability (pupae, adults), in words (ptc>dRet^MEN2B flies) | S6K inhibition, in words (S6K) | B-Raf (Raf) inhibition, in words (B-Raf) | Src inhibition, in words (Src) | other results
CC(C)n1nc(-c2ccc(NC(=O)Nc3ccccc3)cc2)c2c(N)ncnc21 [AD58] | more potent; also recorded: stronger inhibitor | failed to prevent invasion/basal migration and not and did not suppress migration | significant toxicity without detectable efficacy | much weaker inhibitor | much weaker inhibitor | strongly inhibited | phospho-Ret and downstream biomarkers [1]: potent inhibitors; invasion and migration of dRetMEN2B-transformed cells ([2]; co-treatment AD58 plus Sorafenib): significant suppression of invasion and migration; also recorded: blocked; basal phospho-Src in wing epithelium ([2]; oral administration): prevented basal phospho-Src accumulation; effect of reducing dTor on drug efficacy/toxicity (ptc>dRet^MEN2B flies; ptc>dRetMEN2B dTor-/+): enhanced the toxicity; effect of reducing erk gene dosage on drug efficacy in viability assay (ptc>dRet^MEN2B flies; ptc>dRetMEN2B, erk-/+): considerably enhanced the efficacy; ectopic wing vein / wing pattern phenotype [3]: slightly but consistently enhanced; phospho-Ret and downstream biomarkers [4]: potent inhibitors; whole animal toxicity (wild type flies; fed to ptc>dRetMEN2B and wild type flies): significant whole animal toxicity
COc1cc2c(Nc3ccc(Br)cc3F)ncnc2cc1OCC1CCN(C)CC1 [Vandetanib, reference compound] | – | – | – | – | – | – | reduction of tumor progression relative to vehicle [5]: 1.9 fold
CNC(=O)c1cc(Oc2ccc(NC(=O)Nc3ccc(Cl)c(C(F)(F)F)c3)cc2)ccn1 [Sorafenib, reference compound] | – | measurable rescue that was nonetheless less than AD57; also recorded: did not suppress migration | stronger; also recorded: rescued some animals to adulthood but did not significantly increase the proportion that developed to pupariation | – | – | – | notum, scutellum and cuticle defects of ptc>dRetMEN2B adults (ptc>dRet^MEN2B flies; drug fed flies): weakly suppressed; also recorded: some cuticle defects; AD58-mediated toxicity in wild type flies on co-feeding with the named drug (wild type flies; co-feeding with AD58): almost completely suppressed
Nc1ncnc2c1c(-c1cnc3[nH]ccc3c1)nn2C1CCCC1 [PP121, reference compound] | – | limited ability to significantly rescue the transformation phenotype and not | – | – | – | – | inhibition of MZ-CRC-1 cell viability / proliferation, in words [6]: levels approaching AD57
Cn1cnc2c(F)c(Nc3ccc(Br)cc3Cl)c(C(=O)NOCCO)cc21 [AZD6244, reference compound] | – | – | did not rescue viability | – | – | – | AD58-mediated toxicity in wild type flies on co-feeding with the named drug (wild type flies; in vivo): almost completely suppressed
CC(C)n1nc(-c2ccc(NC(=O)Nc3ccc(Cl)c(C(F)(F)F)c3)cc2)c2c(N)ncnc21 [AD81] | not and greatly reduced mTor activity and lack significant inhibitory activity | significantly improved suppression | improved rescue relative to AD57 | inhibited | inhibited | inhibited | Ret inhibition, in words (Ret kinase domain): inhibited
